In US10870647B2, “Imidazopyridine derivative, method for preparing same, and pharmaceutical composition containing same as active ingredient for preventing or treating cancer” (DAEGU-GYEONGBUK MEDICAL INNOVATION FOUNDATION, priority 2016, dated 2020) one finds remaining binding data, which are given here for three molecules.

Structures are written as SMILES.

Assay in all cases: Kinase selectivity, scanMAX Kinase assay panel (DiscoverX), % control at 1 uM
Holding throughout (type): binding

Assay [1] concerns the target T1, scanMAX Kinase assay panel (Homo sapiens, UniProt O15075).
T1 construct: purchased DiscoverX
The settings on record: DCAMKL1; 1 uM; read-out: Percent Control (%). In a few lines: (§1)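 Read-out is percent of control, derived from the signal with compound relative to positive and negative controls: (compound − positive)/(negative − positive) × 100. Each enzyme received test drug at 1 uM in DMSO, and values under 35% count as active.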

Assay [2] deals with T2, scanMAX Kinase assay panel (Homo sapiens, UniProt P08581).
T2 construct: purchased DiscoverX
The settings on record: MET; 1 uM; read-out: Percent Control (%). In short, it runs like this: as §1

For assay [3], the target named is T3, scanMAX Kinase assay panel (Homo sapiens, UniProt P42336, H1047L).
T3 construct: purchased DiscoverX
The following applies: PIK3CA (H1047L); 1 uM; read-out: Percent Control (%). In short, it runs like this: as §1

Assay [4] concerns the target T4, scanMAX Kinase assay panel (Homo sapiens, UniProt P43403).
T4 construct: purchased DiscoverX
T4 sequence (P43403 1-619): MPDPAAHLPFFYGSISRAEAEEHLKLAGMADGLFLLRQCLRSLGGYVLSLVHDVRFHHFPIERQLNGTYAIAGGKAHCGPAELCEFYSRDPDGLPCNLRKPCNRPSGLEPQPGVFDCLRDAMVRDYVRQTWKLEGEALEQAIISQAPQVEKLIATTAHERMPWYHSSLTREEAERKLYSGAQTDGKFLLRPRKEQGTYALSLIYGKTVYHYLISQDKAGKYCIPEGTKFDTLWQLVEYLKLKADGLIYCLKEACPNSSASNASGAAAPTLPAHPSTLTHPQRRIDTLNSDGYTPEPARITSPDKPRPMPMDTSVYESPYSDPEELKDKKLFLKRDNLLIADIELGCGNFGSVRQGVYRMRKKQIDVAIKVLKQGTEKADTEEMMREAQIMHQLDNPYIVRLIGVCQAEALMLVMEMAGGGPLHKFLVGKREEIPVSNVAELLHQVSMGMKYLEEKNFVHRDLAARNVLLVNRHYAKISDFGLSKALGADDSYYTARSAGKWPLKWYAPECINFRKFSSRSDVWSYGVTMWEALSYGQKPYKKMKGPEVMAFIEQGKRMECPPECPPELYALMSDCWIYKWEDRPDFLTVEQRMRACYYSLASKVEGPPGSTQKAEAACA
The following applies: ZAP70; 1 uM; read-out: Percent Control (%). In a few lines: as §1

For assay [5], the target named is T5, scanMAX Kinase assay panel (Homo sapiens, UniProt Q15208).
T5 construct: purchased DiscoverX
The following applies: NDR1; 1 uM; read-out: Percent Control (%). In short, it runs like this:
as §1

The target of assay [6] is T6, scanMAX Kinase assay panel (Homo sapiens, UniProt Q8IYT8).
T6 construct: purchased DiscoverX
T6 sequence (Q8IYT8 1-1036): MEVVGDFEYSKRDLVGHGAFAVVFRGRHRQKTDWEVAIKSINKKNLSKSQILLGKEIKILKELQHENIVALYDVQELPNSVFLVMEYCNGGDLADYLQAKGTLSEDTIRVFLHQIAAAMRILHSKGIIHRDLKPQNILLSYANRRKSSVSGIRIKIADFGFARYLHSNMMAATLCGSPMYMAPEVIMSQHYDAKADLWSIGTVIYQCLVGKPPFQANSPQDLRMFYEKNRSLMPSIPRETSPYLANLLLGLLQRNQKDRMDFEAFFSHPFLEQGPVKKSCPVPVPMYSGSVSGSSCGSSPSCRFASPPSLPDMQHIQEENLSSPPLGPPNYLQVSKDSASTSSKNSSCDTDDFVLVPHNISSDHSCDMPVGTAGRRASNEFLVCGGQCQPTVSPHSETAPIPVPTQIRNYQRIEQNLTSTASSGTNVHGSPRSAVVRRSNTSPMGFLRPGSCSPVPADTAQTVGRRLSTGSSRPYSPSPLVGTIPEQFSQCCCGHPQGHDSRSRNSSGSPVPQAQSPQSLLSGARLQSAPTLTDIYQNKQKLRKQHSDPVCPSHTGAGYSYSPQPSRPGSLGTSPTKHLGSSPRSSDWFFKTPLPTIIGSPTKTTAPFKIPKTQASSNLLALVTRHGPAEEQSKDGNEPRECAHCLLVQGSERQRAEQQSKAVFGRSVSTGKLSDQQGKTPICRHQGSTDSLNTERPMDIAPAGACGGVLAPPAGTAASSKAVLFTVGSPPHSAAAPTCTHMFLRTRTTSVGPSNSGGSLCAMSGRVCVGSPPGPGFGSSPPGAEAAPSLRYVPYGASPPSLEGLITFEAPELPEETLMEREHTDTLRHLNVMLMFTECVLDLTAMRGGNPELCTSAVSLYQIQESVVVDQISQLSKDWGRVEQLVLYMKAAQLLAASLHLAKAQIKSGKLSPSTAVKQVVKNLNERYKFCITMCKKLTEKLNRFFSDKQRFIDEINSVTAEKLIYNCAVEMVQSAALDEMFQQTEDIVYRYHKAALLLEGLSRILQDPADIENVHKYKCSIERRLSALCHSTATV
The settings on record: ULK2; 1 uM; read-out: Percent Control (%). In short, it runs like this:
as §1

Assay [7] addresses T7, scanMAX Kinase assay panel (Homo sapiens, UniProt Q92772).
T7 construct: purchased DiscoverX
T7 sequence (Q92772 1-493): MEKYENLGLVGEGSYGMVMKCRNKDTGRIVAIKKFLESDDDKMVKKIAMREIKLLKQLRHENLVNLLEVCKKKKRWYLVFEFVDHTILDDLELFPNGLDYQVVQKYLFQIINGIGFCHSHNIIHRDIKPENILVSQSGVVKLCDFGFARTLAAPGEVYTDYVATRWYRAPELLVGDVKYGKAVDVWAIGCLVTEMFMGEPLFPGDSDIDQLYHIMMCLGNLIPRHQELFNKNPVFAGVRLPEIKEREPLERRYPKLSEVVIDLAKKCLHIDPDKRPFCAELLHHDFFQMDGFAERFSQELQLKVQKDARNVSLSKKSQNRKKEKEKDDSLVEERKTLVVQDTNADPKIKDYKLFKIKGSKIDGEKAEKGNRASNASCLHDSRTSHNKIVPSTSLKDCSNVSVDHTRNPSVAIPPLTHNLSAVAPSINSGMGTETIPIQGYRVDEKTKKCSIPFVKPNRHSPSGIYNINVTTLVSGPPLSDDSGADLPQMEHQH
The following applies: CDKL2; 1 uM; read-out: Percent Control (%). In short, it runs like this:
as §1

Assay [8] has as its target T8, scanMAX Kinase assay panel (Homo sapiens, UniProt Q96RR4).
T8 construct: purchased DiscoverX
The following applies: CAMKK2; 1 uM; read-out: Percent Control (%). In short, it runs like this:
as §1

T3 sequence (P42336 whole entry H1047L): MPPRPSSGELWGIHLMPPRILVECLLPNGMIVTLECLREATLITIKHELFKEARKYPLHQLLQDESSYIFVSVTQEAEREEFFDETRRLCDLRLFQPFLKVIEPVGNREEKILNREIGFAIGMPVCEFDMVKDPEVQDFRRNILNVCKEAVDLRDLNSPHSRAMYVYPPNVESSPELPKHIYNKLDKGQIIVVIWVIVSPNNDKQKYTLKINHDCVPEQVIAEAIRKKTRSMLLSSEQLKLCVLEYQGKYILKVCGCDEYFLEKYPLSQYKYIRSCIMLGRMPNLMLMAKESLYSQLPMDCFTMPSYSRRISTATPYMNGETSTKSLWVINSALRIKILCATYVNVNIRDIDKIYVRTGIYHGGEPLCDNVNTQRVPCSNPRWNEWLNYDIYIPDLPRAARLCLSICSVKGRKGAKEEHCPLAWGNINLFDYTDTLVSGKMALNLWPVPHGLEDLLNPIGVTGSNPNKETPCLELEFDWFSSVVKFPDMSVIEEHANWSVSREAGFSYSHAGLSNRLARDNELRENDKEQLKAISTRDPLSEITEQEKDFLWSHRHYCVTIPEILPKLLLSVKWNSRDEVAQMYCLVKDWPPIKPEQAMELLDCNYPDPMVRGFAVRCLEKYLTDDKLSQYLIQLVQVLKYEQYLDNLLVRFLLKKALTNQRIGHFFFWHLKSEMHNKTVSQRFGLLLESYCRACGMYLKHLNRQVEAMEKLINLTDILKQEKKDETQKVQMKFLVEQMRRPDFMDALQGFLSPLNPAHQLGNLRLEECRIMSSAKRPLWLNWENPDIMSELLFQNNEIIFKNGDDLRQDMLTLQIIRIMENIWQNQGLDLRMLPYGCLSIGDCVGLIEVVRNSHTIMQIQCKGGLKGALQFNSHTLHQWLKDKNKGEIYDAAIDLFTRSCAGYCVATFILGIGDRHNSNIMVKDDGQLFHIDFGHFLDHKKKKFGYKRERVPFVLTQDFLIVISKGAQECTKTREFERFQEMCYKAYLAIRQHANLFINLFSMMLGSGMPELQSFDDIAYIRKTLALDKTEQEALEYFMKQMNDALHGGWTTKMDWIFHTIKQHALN
T8 sequence (Q96RR4 whole entry): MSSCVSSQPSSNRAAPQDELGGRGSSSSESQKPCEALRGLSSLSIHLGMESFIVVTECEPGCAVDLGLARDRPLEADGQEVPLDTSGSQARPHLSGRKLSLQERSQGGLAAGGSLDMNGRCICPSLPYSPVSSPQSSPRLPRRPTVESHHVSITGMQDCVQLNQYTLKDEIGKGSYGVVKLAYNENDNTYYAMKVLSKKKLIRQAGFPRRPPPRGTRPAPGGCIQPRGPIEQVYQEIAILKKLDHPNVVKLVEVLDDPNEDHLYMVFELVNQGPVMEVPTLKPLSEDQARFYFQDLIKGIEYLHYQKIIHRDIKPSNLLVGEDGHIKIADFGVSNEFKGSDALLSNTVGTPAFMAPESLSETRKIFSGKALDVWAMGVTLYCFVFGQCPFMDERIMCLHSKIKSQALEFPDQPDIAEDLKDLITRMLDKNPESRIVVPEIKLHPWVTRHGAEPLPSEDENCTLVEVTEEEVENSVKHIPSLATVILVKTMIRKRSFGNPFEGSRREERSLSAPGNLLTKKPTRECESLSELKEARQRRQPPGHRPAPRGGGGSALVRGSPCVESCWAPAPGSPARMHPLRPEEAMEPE
T2 sequence (P08581 25-1390): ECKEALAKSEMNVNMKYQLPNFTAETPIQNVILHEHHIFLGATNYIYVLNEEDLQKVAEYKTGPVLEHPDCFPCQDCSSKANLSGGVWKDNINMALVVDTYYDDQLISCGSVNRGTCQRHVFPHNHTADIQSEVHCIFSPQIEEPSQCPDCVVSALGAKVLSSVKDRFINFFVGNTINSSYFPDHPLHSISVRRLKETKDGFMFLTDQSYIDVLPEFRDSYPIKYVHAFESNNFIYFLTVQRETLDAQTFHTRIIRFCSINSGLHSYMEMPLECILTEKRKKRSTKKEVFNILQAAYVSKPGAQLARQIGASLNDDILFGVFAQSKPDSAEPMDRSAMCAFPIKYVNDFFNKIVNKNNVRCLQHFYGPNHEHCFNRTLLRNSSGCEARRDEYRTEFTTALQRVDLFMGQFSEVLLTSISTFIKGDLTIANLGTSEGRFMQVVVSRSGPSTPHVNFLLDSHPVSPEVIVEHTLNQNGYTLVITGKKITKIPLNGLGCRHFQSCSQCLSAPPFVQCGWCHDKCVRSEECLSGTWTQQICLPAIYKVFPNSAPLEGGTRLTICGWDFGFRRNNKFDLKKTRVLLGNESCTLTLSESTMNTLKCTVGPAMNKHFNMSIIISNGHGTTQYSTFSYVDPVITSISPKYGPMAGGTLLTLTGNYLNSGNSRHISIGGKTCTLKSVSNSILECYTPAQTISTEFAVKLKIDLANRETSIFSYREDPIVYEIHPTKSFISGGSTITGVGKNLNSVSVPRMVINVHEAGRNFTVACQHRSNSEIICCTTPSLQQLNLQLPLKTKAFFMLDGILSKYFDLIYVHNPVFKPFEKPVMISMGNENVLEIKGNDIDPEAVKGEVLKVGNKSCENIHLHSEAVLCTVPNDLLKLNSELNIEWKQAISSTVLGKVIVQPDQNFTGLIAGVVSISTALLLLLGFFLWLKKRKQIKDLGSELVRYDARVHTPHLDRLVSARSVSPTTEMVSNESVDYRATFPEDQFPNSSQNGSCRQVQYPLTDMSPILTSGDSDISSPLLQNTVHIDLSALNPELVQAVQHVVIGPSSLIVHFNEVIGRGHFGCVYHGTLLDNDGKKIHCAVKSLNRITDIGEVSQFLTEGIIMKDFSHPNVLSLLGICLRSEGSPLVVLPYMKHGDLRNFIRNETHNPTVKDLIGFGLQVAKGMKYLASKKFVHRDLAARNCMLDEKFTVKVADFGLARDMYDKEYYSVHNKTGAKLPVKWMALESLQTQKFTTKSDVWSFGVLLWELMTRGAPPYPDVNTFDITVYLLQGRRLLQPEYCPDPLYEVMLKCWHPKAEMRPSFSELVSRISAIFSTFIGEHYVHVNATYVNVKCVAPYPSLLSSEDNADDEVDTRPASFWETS
T1 sequence (O15075 whole entry): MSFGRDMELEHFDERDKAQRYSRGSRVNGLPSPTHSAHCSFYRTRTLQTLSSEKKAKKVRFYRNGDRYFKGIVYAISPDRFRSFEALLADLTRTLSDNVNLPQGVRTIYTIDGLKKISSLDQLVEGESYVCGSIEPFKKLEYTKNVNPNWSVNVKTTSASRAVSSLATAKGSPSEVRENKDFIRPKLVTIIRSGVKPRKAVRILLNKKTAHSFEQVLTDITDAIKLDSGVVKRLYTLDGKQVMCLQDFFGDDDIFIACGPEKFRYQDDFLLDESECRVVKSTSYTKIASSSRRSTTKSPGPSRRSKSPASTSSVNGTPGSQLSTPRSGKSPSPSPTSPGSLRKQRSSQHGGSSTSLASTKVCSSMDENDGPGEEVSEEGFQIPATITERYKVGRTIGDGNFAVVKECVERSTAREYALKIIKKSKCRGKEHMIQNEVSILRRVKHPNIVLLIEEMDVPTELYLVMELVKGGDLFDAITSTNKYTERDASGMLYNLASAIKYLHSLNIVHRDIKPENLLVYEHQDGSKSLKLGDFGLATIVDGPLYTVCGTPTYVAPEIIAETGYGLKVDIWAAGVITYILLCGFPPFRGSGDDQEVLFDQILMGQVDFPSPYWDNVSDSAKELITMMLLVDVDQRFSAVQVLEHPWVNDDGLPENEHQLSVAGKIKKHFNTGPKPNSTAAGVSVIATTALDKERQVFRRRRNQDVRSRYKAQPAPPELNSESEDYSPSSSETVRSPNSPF
T5 sequence (Q15208 whole entry): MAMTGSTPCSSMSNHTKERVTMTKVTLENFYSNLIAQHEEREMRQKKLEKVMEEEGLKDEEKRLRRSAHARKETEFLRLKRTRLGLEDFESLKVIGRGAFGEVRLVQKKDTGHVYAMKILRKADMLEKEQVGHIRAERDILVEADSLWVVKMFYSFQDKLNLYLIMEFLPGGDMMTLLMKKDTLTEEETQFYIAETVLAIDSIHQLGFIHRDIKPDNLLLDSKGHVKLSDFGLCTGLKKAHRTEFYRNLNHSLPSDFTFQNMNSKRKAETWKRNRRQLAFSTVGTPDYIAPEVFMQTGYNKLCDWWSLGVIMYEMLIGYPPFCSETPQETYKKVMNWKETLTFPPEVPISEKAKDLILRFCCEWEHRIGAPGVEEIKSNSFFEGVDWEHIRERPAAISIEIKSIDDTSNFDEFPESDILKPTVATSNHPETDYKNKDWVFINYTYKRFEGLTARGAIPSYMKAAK

For `Cc1ccc(C(=O)Nc2ccc(CN3CCN(C)CC3)c(C(F)(F)F)c2)cc1C#Cc1cnc2c(Nc3cnn(C)c3)cccn12` [Example 1, 4-methyl-3-((8-((1-methyl-1H-pyrazol-4-yl)amino)imidazo[1,2-a]pyridin-3-yl)ethynyl)-N-(4-((4-methylpiperazin-1-yl)methyl)-3-(trifluoromethyl)phenyl)benzamide], the remaining binding at 1 µM worked out at 54% in assay [1]; 18% in assay [2]; 100% in assay [3]; 26% in assay [4]; 56% in assay [5]; 62% in assay [6]. The remaining binding at 1 µM worked out at 0% in assay [7] and 32% in assay [8].
As for `Cc1cn(-c2cc(NC(=O)c3ccc(C)c(C#Cc4cnc5c(Nc6cnn(C)c6)cccn45)c3)cc(C(F)(F)F)c2)cn1` [Example 12, 4-methyl-N-(3-(4-methyl-1H-imidazol-1-yl)-5-(trifluoromethyl)phenyl)-3-((8-((1-methyl-1H-pyrazol-4-yl)amino)imidazo[1,2-a]pyridin-3-yl)ethynyl)benzamide], the remaining binding at 1 µM in assay [1] came out at 91%; in assay [2], 47%; in assay [3], 100%; in assay [4] it was 100%; in assay [5] it was 98%; in assay [6] it was 100%. Besides, the values for the remaining binding at 1 µM in assay [7] and in assay [8] were 55% and 77%, respectively.
For the molecule `Cc1ccc(NC(=O)C2(C(=O)Nc3ccc(F)cc3)CC2)cc1C#Cc1cnc2c(Nc3cnn(C(C)C)c3)cccn12` [Example 78], the remaining binding at 1 µM turned out to be 95% in assay [1]; 100% in assay [2]; 92% in assay [3]; 96% in assay [4]; 83% in assay [5]; 90% in assay [6]. The remaining binding at 1 µM in assay [7] amounted to 94%; in assay [8], 100%.
